Assay results published in patent US20240166669A1, “QUINAZOLINE AMINE DERIVATIVES AS KRAS INHIBITORS” (Nikang Therapeutics, Inc., priority 2021, published 2024).

Target: T1, K-Ras G12D (Homo sapiens, UniProt P01116, G12D)
T1 construct: AGS (Cobioer, CBP60476) cell lines which harbor KRAS G12D mutation; host or cells: AGS
Assay: p-ERK Cellular 1-Plate Assay (Biological Example 3)
Type: cell-based
Conditions: AGS cells (KRAS G12D), 3 h treatment, AlphaLISA p-ERK1/2, 1-plate; Biological Example 3 (values marked *); read-out: AGS PERK EC50
Procedure: The ability of the compound of Formula (IIA′), (II′), or (II) or a pharmaceutically acceptable salt thereof (test compound) to inhibit K-Ras G12D activity was tested using AGS (Cobioer, CBP60476) cell lines which harbor KRAS G12D mutation as described below.
AGS (Cobioer, CBP60476) were seeded in 384-well plates and cultured overnight (5,000 cells per well, 40 μl total volume). The following morning, cells were treated with test compound, with starting concentration at 10 μM and 3-fold dilution down to 0.5 nM for 3 h at […]. DMSO treatment served as control. pERK was then measured using AlphaLISA SureFire Ultra p-ERK/2 (Thr202/Tyr204) Assay Kit (Perkin Elmer, cat #ALSU-PERK) following the manufacturer's instruction as follows.
Briefly, the culture medium was removed and 10 μl 1× lysis buffer was added to each well, followed by 10 minutes incubation on a plate shaker at room temperature. Acceptor mixture was prepared according to manufacturer's instruction. 5 μl acceptor mixture was added to the cell lysate and the plate was wrapped with foil, spun at 500 rpm for 10s and incubated at RT for 60 min. Donor mixture was prepared under subdued light. 5 μl donor mixture was added to the cell lysate and the plate was spun at 500 rpm for 10s and incubated at RT for another 60 min. in the dark.

T1 sequence (P01116 1-188 isoform P01116-2 G12D): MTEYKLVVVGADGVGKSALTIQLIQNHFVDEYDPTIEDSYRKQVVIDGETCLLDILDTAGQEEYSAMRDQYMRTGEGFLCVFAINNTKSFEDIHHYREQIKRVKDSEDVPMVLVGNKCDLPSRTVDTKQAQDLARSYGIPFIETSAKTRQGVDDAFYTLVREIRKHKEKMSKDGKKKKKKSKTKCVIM

| Structure (SMILES) | EC50 |
| --- | --- |
| C#Cc1c(F)ccc2cc(O)cc(-c3ncc4c(N5C[C@H]6CC[C@@H](C5)N6)nc(OCC56CCCCN5CC(=C)C6)nc4c3F)c12 (stereo partly drawn) [Example 43, 4-(4-((1R,5S)-3,8-diazabicyclo[3.2.1]octan-3-yl)-8-fluoro-2-((2-methylenehexahydroindolizin-8a(1H)-yl)methoxy)pyrido[4,3-d]pyrimidin-7-yl)-5-ethynyl-6-fluoronaphthalen-2-ol] | 0.018 µM |
| C#Cc1c(F)ccc2cc(O)cc(-c3ncc4c(N5C[C@H]6CC[C@@H](C5)N6)nc(OC[C@@H]5CC(=C)CN5C)nc4c3F)c12 [Example 46, 4-(4-((1R,5S)-3,8-diazabicyclo[3.2.1]octan-3-yl)-8-fluoro-2-(((S)-1-methyl-4-methylenepyrrolidin-2-yl)methoxy)pyrido[4,3-d]pyrimidin-7-yl)-5-ethynyl-6-fluoronaphthalen-2-ol] | 0.0053 µM |
| C#Cc1c(F)ccc2cccc(-c3ncc4c(N5C[C@H]6CC[C@@H](C5)N6)nc(OCC56CC(=C)CN5CC(=C)C6)nc4c3F)c12 [Example 47, 4-((1R,5S)-3,8-diazabicyclo[3.2.1]octan-3-yl)-2-((2,6-dimethylenetetrahydro-1H-pyrrolizin-7a(5H)-yl)methoxy)-7-(8-ethynyl-7-fluoronaphthalen-1-yl)-8-fluoropyrido[4,3-d]pyrimidine] | 0.052 µM |
| C#Cc1c(F)ccc2cc(O)cc(-c3ncc4c(N5C[C@H]6CC[C@H](N6)C5C)nc(OCC56CCCN5CC(=C)C6)nc4c3F)c12 (stereo partly drawn) [Example 54, 5-ethynyl-6-fluoro-4-(8-fluoro-4-((1S,5R)-2-methyl-3,8-diazabicyclo[3.2.1]octan-3-yl)-2-((2-methylene-tetrahydro-1H-pyrrolizin-7a(5H)-yl)methoxy)-pyrido[4,3-d]pyrimidin-7-yl)naphthalen-2-ol] | 0.0014 µM |
